Data from the NIST ThermoML archive (doi:10.1016/j.jct.2009.05.001).

Assay: xn = mol fraction of the nth substance listed
Conditions: 101 kPa, Liquid; for speed of sound: Sing-around technique in a fixed-path interferometer; for mass density: Vibrating tube method

ClC(Cl)C(Cl)Cl [1,1,2,2-tetrachloroethane] + CCCCCCO
Conditions | mass density, 308.15 K [kg/m3] | mass density, 313.15 K [kg/m3] | speed of sound, 308.15 K [m/s] | speed of sound, 313.15 K [m/s]
x1 = 0.0688 | 853.014 | 849.095 | 1241.8 | 1225.3
x1 = 0.123 | 889.246 | 885.104 | 1220.7 | 1204.1
x1 = 0.2457 | 973.918 | 969.244 | 1176.4 | 1160
x1 = 0.3618 | 1057.58 | 1052.37 | 1138.6 | 1122.3
x1 = 0.4502 | 1123.79 | 1118.17 | 1112.2 | 1096
x1 = 0.5583 | 1208.04 | 1201.9 | 1082.7 | 1066.7
x1 = 0.6518 | 1283.92 | 1277.31 | 1060 | 1044.2
x1 = 0.7068 | 1329.98 | 1323.07 | 1047.9 | 1032.3
x1 = 0.7419 | 1360.06 | 1352.96 | 1040.7 | 1025.1
x1 = 0.7797 | 1392.95 | 1385.63 | 1033.5 | 1018
x1 = 0.8315 | 1438.91 | 1431.3 | 1024.4 | 1009.1
x1 = 0.8718 | 1475.7 | 1467.85 | 1018 | 1002.8
x1 = 0.9179 | 1518.39 | 1510.31 | 1012.1 | 997.14
x1 = 0.9504 | 1549.36 | 1541.12 | 1009.1 | 994.34
x1 = 1 | 1597.75 | 1589.36 | 1008.9 | 994.15

BrCCBr [1,2-dibromoethane] + CCCCCCO
Conditions | mass density, 308.15 K [kg/m3] | mass density, 313.15 K [kg/m3] | speed of sound, 308.15 K [m/s] | speed of sound, 313.15 K [m/s]
x1 = 0.0402 | 845.2 | 841.335 | 1246.8 | 1230.7
x1 = 0.0682 | 871.58 | 867.573 | 1231.5 | 1215.3
x1 = 0.1276 | 929.152 | 924.828 | 1200.8 | 1184.8
x1 = 0.2056 | 1008.3 | 1003.54 | 1163.8 | 1148.2
x1 = 0.2686 | 1075.32 | 1070.19 | 1136.5 | 1121.2
x1 = 0.3892 | 1211.59 | 1205.72 | 1090.4 | 1075.6
x1 = 0.4277 | 1258.28 | 1252.15 | 1077 | 1062.5
x1 = 0.5444 | 1406.53 | 1399.6 | 1041.2 | 1027.1
x1 = 0.6405 | 1539.27 | 1531.62 | 1016.5 | 1003
x1 = 0.7326 | 1676.75 | 1668.38 | 996.88 | 983.86
x1 = 0.8519 | 1871.88 | 1862.55 | 978.58 | 966.15
x1 = 0.9273 | 2006.87 | 1996.95 | 971.93 | 959.29
x1 = 0.9587 | 2066.14 | 2055.98 | 970.13 | 957.92
x1 = 0.9782 | 2104.45 | 2094.14 | 969.05 | 956.68
x1 = 1 | 2148.2 | 2137.69 | 968.69 | 956.08

ClCCCl [1,2-dichloroethane] + CCCCCCO
Conditions | mass density, 308.15 K [kg/m3] | mass density, 313.15 K [kg/m3] | speed of sound, 308.15 K [m/s] | speed of sound, 313.15 K [m/s]
x1 = 0.037 | 817.675 | 813.926 | 1262.4 | 1246.1
x1 = 0.0769 | 828.456 | 824.595 | 1254.6 | 1238.5
x1 = 0.1499 | 848.617 | 844.565 | 1240.1 | 1223.2
x1 = 0.2147 | 867.202 | 863.005 | 1226.8 | 1210.1
x1 = 0.2935 | 891.704 | 887.346 | 1212.5 | 1195.8
x1 = 0.3952 | 926.131 | 921.594 | 1195.1 | 1177.8
x1 = 0.4532 | 947.081 | 942.428 | 1185.4 | 1167.5
x1 = 0.5596 | 988.685 | 983.815 | 1169.3 | 1151.5
x1 = 0.6113 | 1010.54 | 1005.54 | 1162 | 1144.6
x1 = 0.6971 | 1049.83 | 1044.5 | 1153.5 | 1135.8
x1 = 0.7791 | 1091.94 | 1086.13 | 1148.8 | 1131.2
x1 = 0.8563 | 1135.2 | 1128.8 | 1148 | 1129
x1 = 0.9335 | 1184.46 | 1177.4 | 1151.1 | 1128.9
x1 = 0.979 | 1215.34 | 1207.97 | 1152.8 | 1132.9
x1 = 1 | 1230.88 | 1223.41 | 1155.3 | 1136.2

CCCCCCO [hexan-1-ol] + BrCCBr
x2 = 0
Conditions | mass density [kg/m3] | speed of sound [m/s]
308.15 K | 808.056 | 1270.2
313.15 K | 804.397 | 1253.6

CCCCCCO [hexan-1-ol] + ClC(Cl)C(Cl)Cl
x2 = 0
Conditions | mass density [kg/m3] | speed of sound [m/s]
308.15 K | 808.056 | 1270.2
313.15 K | 804.397 | 1253.6

CCCCCCO [hexan-1-ol] + ClCCCl
x2 = 0
Conditions | mass density [kg/m3] | speed of sound [m/s]
308.15 K | 808.056 | 1270.2
313.15 K | 804.397 | 1253.6
